The target in one data set is T1, human uPAR (uPAR-Fc) (Homo sapiens, UniProt Q03405).
T1 construct: comprising amino acids Leu23-Arg303 according to UniProt entry Q03405.1; purchased R&D Systems 10378-UK-100
Briefly: Surface plasmon resonance (SPR) assay, single cycle kinetics. The data set is classed as binding. The conditions noted are these: pKD category for uPAR SPR activity assay; uPAR-Fc on Protein A-Chip, single cycle kinetics, 25°C; read-out: pKD CAT (converted). The essentials: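 uPAR-Fc (Leu23-Arg303 extracellular domains, human IgG1 Fc) captured on Protein A chip to ~2000 RU; single-cycle kinetics at 25°C in HEPES running buffer pH 7.4 with 0.1% DMSO. KD from double-referenced sensorgrams fitted to 1:1 Langmuir model, reported as pKD.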
Background: SPR reads the build-up and loss of mass on a sensor chip optically.

In data set [1] the target is T2, Recombinant soluble human NEP (Homo sapiens, UniProt P08473).
T2 construct: Recombinant soluble human NEP; purchased BioTechne, Wiesbaden, Germany
The experiment in a line: Proteolytic stability assay against NEP. The data set is classed as in vitro ADME. The settings on record: recombinant soluble human NEP, human NEP 100 ng/mL, compound 10 µM, 37°C, LC-MS quantification, read-out: % intact compound remaining after 24h incubation. In a few lines: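 Compound (10 µM) with internal standard (10 µM) incubated at 37°C with recombinant soluble human NEP at 100 ng/mL, sampled over time. LC-MS (positive ESI Q-TOF) quantified by matrix calibration against the internal standard. Value is % intact compound remaining after 24 h.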

Where a SMILES comes first, the peptide text is derived from it. Bridges are numbered along the chain shown (N, C = ends). [ ]: non-standard residue; d: D form. The star is where a group is joined. DOTA = O=C(O)CN1CCN(CC(=O)O)CCN(CC(=O)*)CCN(CC(=O)O)CC1; Hyp = O=C(O)[C@@H]1C[C@@H](O)CN1; Pentanoyl(4-Me) = CC(C)CCC(=O)*; Cit = NC(=O)NCCC[C@H](N)C(=O)O; Nva = CCC[C@H](N)C(=O)O; Pentanoyl = CCCCC(=O)*

T2 sequence (P08473 52-750 limits assumed): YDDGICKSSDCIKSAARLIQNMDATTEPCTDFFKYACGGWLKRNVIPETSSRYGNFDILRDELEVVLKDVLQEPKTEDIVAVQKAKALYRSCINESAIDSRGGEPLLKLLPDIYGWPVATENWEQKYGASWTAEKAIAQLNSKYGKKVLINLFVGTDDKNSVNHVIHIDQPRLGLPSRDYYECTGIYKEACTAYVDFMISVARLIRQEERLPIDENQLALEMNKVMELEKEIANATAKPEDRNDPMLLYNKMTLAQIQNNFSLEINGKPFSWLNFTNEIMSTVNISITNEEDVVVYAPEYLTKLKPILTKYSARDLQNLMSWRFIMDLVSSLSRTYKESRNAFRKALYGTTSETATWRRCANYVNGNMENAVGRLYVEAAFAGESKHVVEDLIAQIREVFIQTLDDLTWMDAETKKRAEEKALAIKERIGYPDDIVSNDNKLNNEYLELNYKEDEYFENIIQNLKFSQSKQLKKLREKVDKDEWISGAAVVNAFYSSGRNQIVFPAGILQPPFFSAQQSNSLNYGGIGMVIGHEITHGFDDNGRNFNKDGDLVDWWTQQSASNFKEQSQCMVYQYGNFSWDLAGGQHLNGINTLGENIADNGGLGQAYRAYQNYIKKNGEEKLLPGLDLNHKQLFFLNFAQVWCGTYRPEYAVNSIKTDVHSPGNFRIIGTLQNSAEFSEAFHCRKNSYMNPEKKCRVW
T1 sequence (Q03405 23-303): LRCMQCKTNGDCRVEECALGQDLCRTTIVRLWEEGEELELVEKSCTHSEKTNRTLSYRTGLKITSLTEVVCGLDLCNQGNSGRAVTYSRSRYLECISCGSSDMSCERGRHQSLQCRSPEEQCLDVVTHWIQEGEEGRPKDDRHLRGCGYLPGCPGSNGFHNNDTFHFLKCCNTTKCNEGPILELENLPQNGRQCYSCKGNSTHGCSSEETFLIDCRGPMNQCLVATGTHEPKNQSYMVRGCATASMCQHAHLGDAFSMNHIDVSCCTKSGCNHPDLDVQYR

Consider `CCCCC(=O)N[C@H]1CSSC[C@@H](C(N)=O)NC(=O)[C@H](CCC)NC(=O)[C@H]([C@@H](C)CC)NC(=O)[C@@H]2C[C@@H](O)CN2C(=O)[C@@H]2C[C@@H](O)CN2C(=O)[C@H](Cc2ccccc2)NC(=O)[C@H](Cc2ccc(O)cc2)NC(=O)[C@H](CCCCNC(=O)CN2CCN(CC(=O)O)CCN(CC(=O)O)CCN(CC(=O)O)CC2)NC(=O)[C@H](CCCNC(N)=O)NC1=O` [UPAR-403, Pent-[Cys-Cit-Lys(DOTA)-Tyr-Phe-Hyp-Hyp-Ile-Nva-Cys]-NH2] (Pentanoyl-C[Cit]K(DOTA)YF[Hyp][Hyp]I[Nva]C-NH2; disulfide 1-10), for which the Kd at human uPAR (uPAR-Fc) was < 1.58 nM. In addition, in data set [1], the fraction remaining – broadly, what is left of the initial amount, in per cent – at 24 h, 10 µM amounted to 95%.
In the same order, the values of `CC[C@H](C)[C@@H]1NC(=O)[C@@H](C)NC(=O)[C@@H]2CCCN2C(=O)[C@H](Cc2ccccc2)NC(=O)[C@H](Cc2ccc(O)cc2)NC(=O)[C@H](CC(=O)O)NC(=O)[C@H](CCCNC(N)=O)NC(=O)[C@@H](NC(=O)CCC(C)C)CSSC[C@@H](C(N)=O)NC(=O)[C@H](CC(C)C)NC1=O` [UPAR-434, iHex-[Cys-Cit-Asp-Tyr-Phe-Pro-ala-Ile-Leu-Cys]-NH2] ({Pentanoyl(4-Me)}-C[Cit]DYFP[dA]ILC-NH2; disulfide 1-10) are < 1.58 nM and > 95%.
For the compound `CC[C@H](C)[C@@H]1NC(=O)[C@@H](C)NC(=O)[C@@H]2CCCN2C(=O)[C@H](Cc2ccccc2)NC(=O)[C@H](Cc2ccc(O)cc2)NC(=O)[C@H](CCC(N)=O)NC(=O)[C@H](CCCNC(N)=O)NC(=O)[C@@H](NC(=O)[C@H](CC(C)C)NC(=O)CN2CCN(CC(=O)O)CCN(CC(=O)O)CCN(CC(=O)O)CC2)CSSC[C@@H](C(N)=O)NC(=O)[C@H](CC(C)C)NC1=O` [UPAR-441, DOTA-Leu-[Cys-Cit-Gln-Tyr-Phe-Pro-ala-Ile-Leu-Cys]-NH2] ({DOTA}-LC[Cit]QYFP[dA]ILC-NH2; disulfide 2-11), the Kd on human uPAR (uPAR-Fc) is < 1.58 nM. Moreover, the amount remaining at 24 h, 10 µM in data set [1] was found to be 61%.

The values are drawn from patent EP4610269A1, “UROKINASE PLASMINOGEN ACTIVATOR SURFACE RECEPTOR (UPAR) LIGANDS FOR DIAGNOSTIC OR THERAPEUTIC USE” (3B Pharmaceuticals GmbH, priority 2024, dated 2025).
